Laboratory results taken from ChEMBL document CHEMBL1154538, “Studies on a series of potent, orally bioavailable, 5-HT(1) receptor ligands--part II” (Bioorg Med Chem Lett, 2009).
Calls of active or inactive are those of the source. The calls are words filed in the database; no cut-off is given here.

How the values were obtained:
[1] = molecular target: T1, 5-hydroxytryptamine receptor 1A (Homo sapiens, UniProt P08908); assay: Displacement of [125I]WAY100635 from human 5HT1A receptor expressed in CHO cells; type: cell-based
T1 sequence (P08908 whole entry): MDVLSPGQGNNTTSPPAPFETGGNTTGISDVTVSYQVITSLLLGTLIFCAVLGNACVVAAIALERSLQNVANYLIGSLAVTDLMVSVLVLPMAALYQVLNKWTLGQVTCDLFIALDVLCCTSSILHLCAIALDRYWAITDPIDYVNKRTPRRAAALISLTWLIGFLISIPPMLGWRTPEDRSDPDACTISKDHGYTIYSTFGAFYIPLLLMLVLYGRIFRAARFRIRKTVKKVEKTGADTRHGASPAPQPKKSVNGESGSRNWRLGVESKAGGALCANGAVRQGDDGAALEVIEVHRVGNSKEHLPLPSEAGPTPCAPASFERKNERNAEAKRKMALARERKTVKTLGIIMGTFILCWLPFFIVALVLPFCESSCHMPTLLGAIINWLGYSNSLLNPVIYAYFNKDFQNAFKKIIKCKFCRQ

[2] = molecular target: T2, 5-hydroxytryptamine receptor 1A (Homo sapiens) (UniProt P08908); assay: Intrinsic activity at human 5HT1A receptor expressed in CHO cells by [35S]GTPgammaS binding assay; type: functional, cell-based
T2 sequence (whole entry): T1 sequence (P08908 whole entry)

[3] = molecular target: T3, 5-hydroxytryptamine receptor 1B (Homo sapiens, UniProt P28222); assay: Displacement of [3H]5HT from human 5HT1B receptor expressed in CHO cells; type: cell-based
T3 sequence (P28222 whole entry): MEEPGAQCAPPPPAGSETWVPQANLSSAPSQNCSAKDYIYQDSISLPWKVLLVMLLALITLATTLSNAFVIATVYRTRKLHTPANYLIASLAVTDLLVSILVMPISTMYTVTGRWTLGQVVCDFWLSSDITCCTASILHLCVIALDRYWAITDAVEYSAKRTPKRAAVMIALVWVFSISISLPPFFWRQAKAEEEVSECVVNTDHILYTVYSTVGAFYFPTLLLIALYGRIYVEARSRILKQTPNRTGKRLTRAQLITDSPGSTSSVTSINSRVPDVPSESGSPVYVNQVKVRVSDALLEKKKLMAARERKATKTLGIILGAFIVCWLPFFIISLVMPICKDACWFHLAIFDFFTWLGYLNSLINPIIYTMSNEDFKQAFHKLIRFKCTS

[4] = molecular target: T3, 5-hydroxytryptamine receptor 1B; assay: Intrinsic activity at human 5HT1B receptor expressed in CHO cells by [35S]GTPgammaS binding assay; type: functional, cell-based
[5] = molecular target: T4, 5-hydroxytryptamine receptor 1D (Homo sapiens, UniProt P28221); assay: Displacement of 3H]5HT from human 5HT1D receptor expressed in CHO cells; type: cell-based
T4 sequence (P28221 whole entry): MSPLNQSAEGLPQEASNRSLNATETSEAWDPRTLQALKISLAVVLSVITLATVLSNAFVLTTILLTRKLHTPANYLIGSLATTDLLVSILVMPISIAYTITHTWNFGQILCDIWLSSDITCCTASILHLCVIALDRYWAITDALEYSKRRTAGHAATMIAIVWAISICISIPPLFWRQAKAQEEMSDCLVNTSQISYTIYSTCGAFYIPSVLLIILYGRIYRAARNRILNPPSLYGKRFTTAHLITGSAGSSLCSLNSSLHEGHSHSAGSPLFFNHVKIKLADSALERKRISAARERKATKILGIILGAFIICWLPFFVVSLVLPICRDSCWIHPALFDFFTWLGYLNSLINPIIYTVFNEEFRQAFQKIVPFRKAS

[6] = molecular target: T4, 5-hydroxytryptamine receptor 1D; assay: Intrinsic activity at human 5HT1D receptor expressed in CHO cells by [35S]GTPgammaS binding assay; type: functional, cell-based
[7] = Metabolic stability in human microsomes assessed as intrinsic clearance; type: ADME, Microsome
[8] = Metabolic stability in rat microsomes assessed as intrinsic clearance; type: ADME, Microsome
[9] = Clearance in rat blood at 1 mg/kg, iv; type: ADME, organism-based; design: dose 1 mg/kg, route intravenous
[10] = Half life in rat at 1 mg/kg, iv; type: ADME, organism-based; design: dose 1 mg/kg, route intravenous; conditions: in vivo
[11] = Ratio of drug level in brain to blood in rat at 3 mg/kg, po; type: ADME, organism-based; design: dose 3 mg/kg, route oral; conditions: read-out: BBR
[12] = Volume of distribution at steady state rat; type: ADME, organism-based; conditions: in vivo, read-out: Vdss
[13] = Cmax in rat brain at 3 mg/kg, po; type: ADME, organism-based; design: dose 3 mg/kg, route oral
[14] = molecular target: T2, 5-hydroxytryptamine receptor 1A (Homo sapiens); assay: Inverse agonist activity at human 5HT1A receptor expressed in CHO cells; type: functional, cell-based

Ki [1]	Intrinsic activity [2]	Ki [3]	Intrinsic activity [4]	Ki [5]	Intrinsic activity [6]	Compound	further results
1 nM	0	6.31 nM	0.3	0.501 nM	0.4	Cc1ccc2c(OCCN3CCC(Cc4cccc(N5CCN(C)CC5)c4)CC3)cccc2n1	CLint scaled [7]: 1.6 mL/min/kg; CLint scaled [8]: 2.9 mL/min/kg; clearance [9]: 46 mL/min/kg; half-life [10]: 1.3 h; Kp [11]: 18; Vd [12]: 4.4 L/kg; Cmax [13]: 85 ng/g
3.98 nM	0	2 nM	0.6	1 nM	0.7	Cc1ccc2c(OCCN3CCC(Cc4cccc(N5CCCCC5)c4)CC3)cccc2n1	CLint scaled [8]: 6.2 mL/min/kg
7.94 nM	–	79.4 nM	–	3.16 nM	–	Cc1ccc2c(OCCN3CCC(Cc4cccc(C5CCN(S(C)(=O)=O)CC5)c4)CC3)cccc2n1	–
20 nM	–	63.1 nM	–	3.98 nM	–	Cc1ccc2c(OCCN3CCC(Cc4cccc(N5CCN(C)CC5=O)c4)CC3)cccc2n1	–
–	0	–	0.3	–	0	Cc1ccc2c(OCCN3CCC(Cc4cccc(NS(C)(=O)=O)c4)CC3)cccc2n1	–
10 nM	–	39.8 nM	–	2.51 nM	–	Cc1ccc2c(OCCN3CCC(Cc4cccc(N5CCCC5)c4)CC3)cccc2n1	–
2.51 nM	0	2 nM	0.3	0.631 nM	0.5	Cc1ccc2c(OCCN3CCC(Cc4cccc(N5CCN[C@H](C)C5)c4)CC3)cccc2n1	–
2.51 nM	–	158 nM	–	1.58 nM	–	Cc1ccc2c(OCCN3CCC(Cc4cccc(N5C[C@@H](C)O[C@@H](C)C5)c4)CC3)cccc2n1	–
12.6 nM	–	158 nM	–	3.98 nM	–	CC(=O)N1CCC(c2cccc(CC3CCN(CCOc4cccc5nc(C)ccc45)CC3)c2)CC1	–
7.94 nM	–	7.94 nM	–	1 nM	–	Cc1ccc2c(OCCN3CCC(Cc4cccc(-c5ccncc5)c4)CC3)cccc2n1	–
3.98 nM	0	15.8 nM	0.3	1 nM	0.5	Cc1ccc2c(OCCN3CCC(Cc4cccc(N5CCN[C@@H](C)C5)c4)CC3)cccc2n1	–
2 nM	0	3.98 nM	0.3	0.794 nM	0.5	Cc1ccc2c(OCCN3CCC(Cc4cccc(N5C[C@@H](C)N[C@@H](C)C5)c4)CC3)cccc2n1	–
–	–	–	0.2	–	0.4	Cc1ccc2c(OCCN3CCC(Cc4cccc(NC(=O)CN(C)C)c4)CC3)cccc2n1	Activity [14]: Active
63.1 nM	–	63.1 nM	–	7.94 nM	–	Cc1ccc2c(OCCN3CCC(Cc4cccc(-c5ccccc5)c4)CC3)cccc2n1	–
5.01 nM	0	126 nM	0.4	2.51 nM	0.6	Cc1ccc2c(OCCN3CCC(Cc4cccc(N5CCOCC5)c4)CC3)cccc2n1	–
5.01 nM	–	31.6 nM	–	1 nM	–	Cc1ccc2c(OCCN3CCC(Cc4cccc(N5C[C@@H](C)NC[C@@H]5C)c4)CC3)cccc2n1	–
3.16 nM	–	5.01 nM	0.3	0.2 nM	0.4	Cc1ccc2c(OCCN3CCC(Cc4cccc(C5CCN(C)CC5)c4)CC3)cccc2n1	CLint scaled [7]: < 0.5 mL/min/kg; CLint scaled [8]: 2 mL/min/kg; clearance [9]: 14 mL/min/kg; half-life [10]: 12 h; Kp [11]: 1.3; Vd [12]: 12.4 L/kg; Cmax [13]: 34 ng/g; Activity [14]: Active
2.51 nM	0	7.94 nM	0.3	0.631 nM	0.5	Cc1ccc2c(OCCN3CCC(Cc4cccc(N5CCCN(C)CC5)c4)CC3)cccc2n1	CLint scaled [8]: 26 mL/min/kg
5.01 nM	–	12.6 nM	–	2 nM	–	Cc1ccc2c(OCCN3CCC(Cc4cccc(-c5cccnc5)c4)CC3)cccc2n1	–
6.31 nM	–	6.31 nM	–	1.26 nM	–	Cc1ccc2c(OCCN3CCC(Cc4cccc(C5CCNCC5)c4)CC3)cccc2n1	–
31.6 nM	–	39.8 nM	–	6.31 nM	–	Cc1ccc2c(OCCN3CCC(Cc4cccc(-c5ccoc5)c4)CC3)cccc2n1	–
7.94 nM	–	126 nM	–	10 nM	–	Cc1ccc2c(OCCN3CCC(Cc4cccc(N5CCN(C)C(=O)C5)c4)CC3)cccc2n1	–
